Results reported in the NIST ThermoML archive (doi:10.1021/je060271a).
Where “and” joins values, the source holds several entries; their conditions need not be identical. Equal entries are not always repeated. Numbers after ± are expanded uncertainties.

Conditions: 303.15 K, Liquid, Vibrating tube method

CCCCCC(=O)OCC(COC(=O)CCCCC)(COC(=O)CCCCC)COC(=O)CCCCC [pentaerythritol tetrahexanoate]
Conditions	mass density
228.5 kPa	988.5 ± 1.2 kg/m3
228.8 kPa	988.5 ± 1.2 kg/m3 and 988.4 ± 1.2 kg/m3
229 kPa	988.6 ± 1.2 kg/m3
229.5 kPa	988.6 ± 1.2 kg/m3
229.7 kPa	988.5 ± 1.2 kg/m3
230 kPa	988.5 ± 1.2 kg/m3
230.2 kPa	988.5 ± 1.2 kg/m3
230.4 kPa	988.5 ± 1.2 kg/m3
230.8 kPa	988.5 ± 1.2 kg/m3
230.9 kPa	988.5 ± 1.2 kg/m3
231.1 kPa	988.3 ± 1.2 kg/m3
231.4 kPa	988.5 ± 1.2 kg/m3
231.8 kPa	988.4 ± 1.2 kg/m3
233.2 kPa	988.5 ± 1.2 kg/m3
233.5 kPa	988.4 ± 1.2 kg/m3 and 988.5 ± 1.2 kg/m3
242.4 kPa	988.5 ± 1.2 kg/m3
244 kPa	988.5 ± 1.2 kg/m3
244.1 kPa	988.6 ± 1.2 kg/m3
244.5 kPa	988.5 ± 1.2 kg/m3
247.3 kPa	988.5 ± 1.2 kg/m3
247.4 kPa	988.4 ± 1.2 kg/m3
247.8 kPa	988.5 ± 1.2 kg/m3
248.1 kPa	988.4 ± 1.2 kg/m3 and 988.6 ± 1.2 kg/m3
248.3 kPa	988.5 ± 1.2 kg/m3
249.7 kPa	988.5 ± 1.2 kg/m3
250.2 kPa	988.5 ± 1.2 kg/m3
250.4 kPa	988.4 ± 1.2 kg/m3
250.6 kPa	988.5 ± 1.2 kg/m3
250.7 kPa	988.6 ± 1.2 kg/m3
262 kPa	988.6 ± 1.2 kg/m3
283.9 kPa	988.4 ± 1.2 kg/m3
284.4 kPa	988.6 ± 1.2 kg/m3
284.8 kPa	988.6 ± 1.2 kg/m3 and 988.5 ± 1.2 kg/m3
287.9 kPa	988.5 ± 1.2 kg/m3
288.2 kPa	988.6 ± 1.2 kg/m3
288.7 kPa	988.6 ± 1.2 kg/m3
289.1 kPa	988.6 ± 1.2 kg/m3
289.6 kPa	988.6 ± 1.2 kg/m3 and 988.5 ± 1.2 kg/m3
293.3 kPa	988.6 ± 1.2 kg/m3
294 kPa	988.7 ± 1.2 kg/m3 and 988.6 ± 1.2 kg/m3
294.3 kPa	988.6 ± 1.2 kg/m3
294.8 kPa	988.5 ± 1.2 kg/m3
295 kPa	988.5 ± 1.2 kg/m3
295.2 kPa	988.4 ± 1.2 kg/m3
295.9 kPa	988.6 ± 1.2 kg/m3 and 988.5 ± 1.2 kg/m3
296.4 kPa	988.6 ± 1.2 kg/m3 and 988.5 ± 1.2 kg/m3
296.9 kPa	988.6 ± 1.2 kg/m3
297.3 kPa	988.4 ± 1.2 kg/m3
297.6 kPa	988.5 ± 1.2 kg/m3
305.4 kPa	988.5 ± 1.2 kg/m3
305.8 kPa	988.6 ± 1.2 kg/m3
305.9 kPa	988.6 ± 1.2 kg/m3
312.9 kPa	988.4 ± 1.2 kg/m3
313.2 kPa	988.6 ± 1.2 kg/m3
314.1 kPa	988.6 ± 1.2 kg/m3
314.5 kPa	988.5 ± 1.2 kg/m3
314.8 kPa	988.5 ± 1.2 kg/m3
315.2 kPa	988.5 ± 1.2 kg/m3
315.8 kPa	988.6 ± 1.2 kg/m3
324.2 kPa	988.6 ± 1.2 kg/m3
324.7 kPa	988.5 ± 1.2 kg/m3
329.4 kPa	988.6 ± 1.2 kg/m3
329.9 kPa	988.6 ± 1.2 kg/m3
330.4 kPa	988.7 ± 1.2 kg/m3
330.8 kPa	988.6 ± 1.2 kg/m3
331.1 kPa	988.6 ± 1.2 kg/m3
331.5 kPa	988.5 ± 1.2 kg/m3
331.6 kPa	988.6 ± 1.2 kg/m3
332 kPa	988.6 ± 1.2 kg/m3
332.7 kPa	988.6 ± 1.2 kg/m3 and 988.7 ± 1.2 kg/m3
334.1 kPa	988.7 ± 1.2 kg/m3
334.4 kPa	988.5 ± 1.2 kg/m3
334.6 kPa	988.5 ± 1.2 kg/m3
335.1 kPa	988.6 ± 1.2 kg/m3
335.6 kPa	988.6 ± 1.2 kg/m3
335.7 kPa	988.6 ± 1.2 kg/m3
336.2 kPa	988.6 ± 1.2 kg/m3
336.5 kPa	988.6 ± 1.2 kg/m3
337 kPa	988.6 ± 1.2 kg/m3
337.6 kPa	988.6 ± 1.2 kg/m3
337.9 kPa	988.6 ± 1.2 kg/m3
338.1 kPa	988.6 ± 1.2 kg/m3
338.3 kPa	988.5 ± 1.2 kg/m3
339 kPa	988.5 ± 1.2 kg/m3
340 kPa	988.6 ± 1.2 kg/m3
341.5 kPa	988.5 ± 1.2 kg/m3
342.1 kPa	988.6 ± 1.2 kg/m3
342.8 kPa	988.7 ± 1.2 kg/m3
343.1 kPa	988.5 ± 1.2 kg/m3
343.3 kPa	988.6 ± 1.2 kg/m3
343.8 kPa	988.5 ± 1.2 kg/m3
389.7 kPa	988.6 ± 1.2 kg/m3
391.9 kPa	988.5 ± 1.2 kg/m3
393.8 kPa	988.6 ± 1.2 kg/m3
396.4 kPa	988.7 ± 1.2 kg/m3
398.9 kPa	988.6 ± 1.2 kg/m3
401 kPa	988.6 ± 1.2 kg/m3
403.1 kPa	988.6 ± 1.2 kg/m3
405.6 kPa	988.6 ± 1.2 kg/m3
407.9 kPa	988.5 ± 1.2 kg/m3
410.3 kPa	988.7 ± 1.2 kg/m3
413.3 kPa	988.6 ± 1.2 kg/m3
415.4 kPa	988.6 ± 1.2 kg/m3
418.3 kPa	988.7 ± 1.2 kg/m3
420.6 kPa	988.6 ± 1.2 kg/m3
423.2 kPa	988.6 ± 1.2 kg/m3
426.5 kPa	988.7 ± 1.2 kg/m3
428.6 kPa	988.7 ± 1.2 kg/m3
431 kPa	988.6 ± 1.2 kg/m3
434 kPa	988.6 ± 1.2 kg/m3
436.4 kPa	988.7 ± 1.2 kg/m3
439.4 kPa	988.6 ± 1.2 kg/m3
442.5 kPa	988.7 ± 1.2 kg/m3
445.1 kPa	988.7 ± 1.2 kg/m3
448.1 kPa	988.6 ± 1.2 kg/m3
451.4 kPa	988.6 ± 1.2 kg/m3
579.1 kPa	988.9 ± 1.2 kg/m3
583.8 kPa	988.9 ± 1.2 kg/m3
588.3 kPa	988.7 ± 1.2 kg/m3
593.5 kPa	988.7 ± 1.2 kg/m3
598.6 kPa	988.6 ± 1.2 kg/m3
604.3 kPa	988.7 ± 1.2 kg/m3
609.3 kPa	988.6 ± 1.2 kg/m3
614.4 kPa	988.7 ± 1.2 kg/m3
620.8 kPa	988.8 ± 1.2 kg/m3
625.5 kPa	988.7 ± 1.2 kg/m3
631 kPa	988.8 ± 1.2 kg/m3
635.9 kPa	988.8 ± 1.2 kg/m3
642.5 kPa	988.8 ± 1.2 kg/m3
648.3 kPa	988.8 ± 1.2 kg/m3
653.8 kPa	988.8 ± 1.2 kg/m3
660.6 kPa	988.8 ± 1.2 kg/m3
666.7 kPa	988.8 ± 1.2 kg/m3
672.6 kPa	988.8 ± 1.2 kg/m3
679.9 kPa	988.7 ± 1.2 kg/m3
686 kPa	988.7 ± 1.2 kg/m3
838 kPa	988.9 ± 1.2 kg/m3
872.9 kPa	989 ± 1.2 kg/m3
882.8 kPa	988.9 ± 1.2 kg/m3
890.8 kPa	988.9 ± 1.2 kg/m3
899 kPa	988.9 ± 1.2 kg/m3
907.3 kPa	989 ± 1.2 kg/m3
916.8 kPa	989 ± 1.2 kg/m3
925 kPa	988.8 ± 1.2 kg/m3
933.2 kPa	989 ± 1.2 kg/m3
